Data published in ChEMBL document CHEMBL1144144, “Methylsulfomycin I, a new cyclic peptide antibiotic from a Streptomyces sp. HIL Y-9420704” (1999).
In brackets after ≈: the same amount, converted by molar mass.

How the values were obtained:
Enterococcus faecium [1] = experiment: Antimicrobial activity against vancomycin and teicoplanin-resistant Enterococcus faecium P-1; assay type: functional
Enterococcus equinus [2] = experiment: Antimicrobial activity against vancomycin and teicoplanin-resistant Enterococcus equinus
Enterococcus faecium [3] = experiment: Antimicrobial activity against vancomycin and teicoplanin-resistant Enterococcus faecium R-1; assay type: functional
[4] = tested on: Staphylococcus epidermidis; experiment: Antimicrobial activity against teicoplanin-sensitive Staphylococcus epidermidis 825; assay type: functional
[5] = tested on: Staphylococcus haemolyticus; experiment: Antimicrobial activity against teicoplanin-sensitive Staphylococcus haemolyticus 712; assay type: functional
Enterococcus faecium [6] = experiment: Antimicrobial activity against vancomycin and teicoplanin-resistant Enterococcus faecium R-2; assay type: functional
[7] = tested on: Staphylococcus epidermidis; experiment: Antimicrobial activity against teicoplanin-sensitive Staphylococcus epidermidis 825 relative to vancomycin; assay type: functional
[8] = tested on: Staphylococcus epidermidis; experiment: Antimicrobial activity against teicoplanin-resistant Staphylococcus epidermidis 823 relative to vancomycin; assay type: functional
Enterococcus equinus [9] = experiment: Antimicrobial activity against vancomycin and teicoplanin-resistant Enterococcus equinus relative to vancomycin
Staphylococcus aureus = experiment: Antimicrobial activity against methicillin-resistant Staphylococcus aureus; assay type: functional
Enterococcus = experiment: Antimicrobial activity against Enterococcus species; assay type: functional
Enterococcus faecium [10] = experiment: Antimicrobial activity against vancomycin and teicoplanin-resistant Enterococcus faecium R-1 relative to vancomycin; assay type: functional
Enterococcus faecium [11] = experiment: Antimicrobial activity against vancomycin and teicoplanin-resistant Enterococcus faecium P-1 relative to vancomycin; assay type: functional
[12] = tested on: Staphylococcus haemolyticus; experiment: Antimicrobial activity against teicoplanin-sensitive Staphylococcus haemolyticus 712 relative to vancomycin; assay type: functional
[13] = tested on: Staphylococcus haemolyticus; experiment: Antimicrobial activity against teicoplanin-resistant Staphylococcus haemolyticus 712 relative to vancomycin; assay type: functional
Enterococcus faecium [14] = experiment: Antimicrobial activity against vancomycin and teicoplanin-resistant Enterococcus faecium R-2 relative to vancomycin; assay type: functional

Compound | MIC (Enterococcus faecium [1]) [µg/mL] | MIC (Enterococcus equinus [2]) [µg/mL] | MIC (Enterococcus faecium [3]) [µg/mL] | MIC [4] [µg/mL] | MIC [5] [µg/mL] | MIC (Enterococcus faecium [6]) [µg/mL] | fold change (FC) [7] | fold change (FC) [8] | fold change (FC) (Enterococcus equinus [9]) | MIC (Staphylococcus aureus) [µg/mL] | MIC (Enterococcus) [µg/mL] | fold change (FC) (Enterococcus faecium [10]) | fold change (FC) (Enterococcus faecium [11]) | fold change (FC) [12] | fold change (FC) [13] | fold change (FC) (Enterococcus faecium [14])
CN[C@H](CC(C)C)C(=O)N[C@H]1C(=O)N[C@@H](CC(N)=O)C(=O)N[C@H]2C(=O)N[C@H]3C(=O)N[C@H](C(=O)N[C@H](C(=O)O)c4cc(O)cc(O)c4-c4cc3ccc4O)[C@H](O)c3ccc(c(Cl)c3)Oc3cc2cc(c3O[C@@H]2O[C@H](CO)[C@@H](O)[C@H](O)[C@H]2O[C@H]2C[C@](C)(N)[C@H](O)[C@H](C)O2)Oc2ccc(cc2Cl)[C@H]1O [VANCOMYCIN] | > 100 | > 100 | > 100 | 0.78 (≈ 0.538 µM) | 0.78 (≈ 0.538 µM) | > 100 |  |  |  |  |  |  |  |  |  | 
C=C(NC(=O)C(=C)NC(=O)C(=C)NC(=O)c1ccc2c(n1)-c1nc(oc1C)C(=C)NC(=O)C(=C)NC(=O)c1nc(oc1C)/C(=C/C)NC(=O)c1csc(n1)[C@H](OC)NC(=O)c1nc(oc1C)/C(=C\C(C)O)NC(=O)[C@H]([C@@H](C)O)NC(=O)c1csc-2n1)C(N)=O (stereo partly specified) [METHYLSULFOMYCIN I] |  |  |  |  |  |  | 6.2 | 12.4 | > 800 | 0.06 (≈ 0.0476 µM) | 0.06 (≈ 0.0476 µM) | > 800 | > 800 | 6.2 | 12.4 | > 800
